Results from patent US20160015638A1, “STABLE GLUCOKINASE ACTIVATOR COMPOSITIONS” (vTv Therapeutics LLC, priority 2013, published 2016).

What was measured:
[1] = Biopharmaceutics Classification System (BCS) classification; type: physicochemical
From the text: As a result, Class IV drugs have poor bioavailability and are usually not well-absorbed while having high variability. Preparing a stable, bioavailable composition containing {2-[3-cyclohexyl-3-(trans-4-propoxy-cyclohexyl)-ureido]-thiazol-5-ylsulfanyl}-acetic acid or a pharmaceutically acceptable salt thereof is, however, not straight forward.

[2] = X-ray powder diffraction (XRPD) crystal structure before and after processing; type: physicochemical
From the text: The crystal structure of {2-[3-cyclohexyl-3-(trans-4-propoxy-cyclohexyl)-ureido]-thiazol-5-ylsulfanyl}-acetic acid was not changed during nanosizing.
The crystal structure of {2-[3-cyclohexyl-3-(trans-4-propoxy-cyclohexyl)-ureido]-thiazol-5-ylsulfanyl}-acetic acid was not changed during spray drying.

[3] = test system: insulin secretion by the pancreas; conditions: in the presence of glucose; cited from earlier work

In the case of `CCCO[C@H]1CC[C@H](N(C(=O)Nc2ncc(SCC(=O)O)s2)C2CCCCC2)CC1` [{2-[3-cyclohexyl-3-(trans-4-propoxy-cyclohexyl)-ureido]-thiazol-5-ylsulfanyl}-acetic acid], the “Biopharmaceutics Classification System (BCS) class” value [1] is reported as “Class IV”, the solubility ([1]; BCS classification) is reported as “low solubility” and the “crystal structure (XRPD)” value ([2]; during nanosizing by microfluidization, lyophilized suspension) is reported as “not changed”. The “crystal structure (XRPD)” value ([2]; during spray drying) was “not changed” and the “insulin secretion by the pancreas” value [3] was “does not increase insulin secretion”.
